PubChem BioAssay (NCI)
Where “and” joins values, the source holds several entries; their conditions need not be identical. Equal entries are not always repeated.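 1) Cells in 96-well plates. 2) Compound, 48 h, 5 concentrations. 3) Linear interpolation between surrounding doses. 4) Unreached endpoint = highest concentration. GI50: concentration for 50% inhibition of growth. TGI is the concentration that stops growth completely.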

Assays:
Test in all cases: inhibition of tumour cell growth, NCI panel, 48 h
K-562 leukemia = tested on: K-562 leukemia
OVCAR-8 ovarian = tested on: OVCAR-8 ovarian
SK-MEL-28 melanoma = tested on: SK-MEL-28 melanoma
SK-MEL-5 melanoma = tested on: SK-MEL-5 melanoma
SR leukemia = tested on: SR leukemia
MDA-MB-231 breast = tested on: MDA-MB-231 breast
DU-145 prostate = tested on: DU-145 prostate
UACC-257 melanoma = tested on: UACC-257 melanoma
CCRF-CEM leukemia = tested on: CCRF-CEM leukemia
MCF7 breast = tested on: MCF7 breast

| SMILES | GI50 (K-562 leukemia) [µM] | TGI (K-562 leukemia) [µM] | GI50 (OVCAR-8 ovarian) [µM] | TGI (OVCAR-8 ovarian) [µM] | GI50 (SK-MEL-28 melanoma) [µM] | TGI (SK-MEL-28 melanoma) | GI50 (SK-MEL-5 melanoma) [µM] | TGI (SK-MEL-5 melanoma) [µM] | GI50 (SR leukemia) | TGI (SR leukemia) | GI50 (MDA-MB-231 breast) [µM] | TGI (MDA-MB-231 breast) [µM] | GI50 (DU-145 prostate) [µM] | TGI (DU-145 prostate) [µM] | GI50 (UACC-257 melanoma) [µM] | TGI (UACC-257 melanoma) | TGI (CCRF-CEM leukemia) | GI50 (CCRF-CEM leukemia) [µM] | GI50 (MCF7 breast) [µM] | TGI (MCF7 breast) [µM] |
| --- | --- | --- | --- | --- | --- | --- | --- | --- | --- | --- | --- | --- | --- | --- | --- | --- | --- | --- | --- | --- |
| Clc1ccc(N=CNc2ccc(-c3nc4ccccc4[nH]3)cc2)cc1 | 1.56 | 17.2 | 64.1 | > 100 | 22.8 | 63.6 µM | 39.9 | > 100 | 39.6 µM | > 100 µM | > 100 | > 100 | 59.2 | > 100 | > 100 | > 100 µM | – | – | – | – |
| CCCCc1c2c(nc3c1CC/C(=C\c1ccccc1)C3=O)CCCC2 | – | 32.3 | – | 4.79 | – | 9.52 µM | – | – | – | 11.5 µM | – | – | – | – | – | 18.3 µM | 29.4 µM | – | – | – |
| CCOC(=O)c1c(/C=N\Nc2ccccc2)nc2ccccc2c1-c1ccccc1 | – | > 100 | – | > 100 | – | > 100 µM | – | 85.6 | – | 61.4 µM | – | – | – | – | – | > 100 µM | 88 µM | – | – | – |
| CCOC(=O)NC/C=C/CO | – | > 100 | – | > 100 | – | > 100 µM | – | > 100 | – | > 100 µM | – | – | – | – | – | > 100 µM | > 100 µM | – | – | – |
| O=C1NC2(CCCCC2)C2=C1CCCCC2 | – | > 100 | – | > 100 | – | > 100 µM | – | > 100 | – | > 100 µM | – | – | – | – | – | > 100 µM | > 100 µM | – | – | – |
| NC(=O)NC(=O)C1CCC(=O)N1S(=O)(=O)c1ccc(Cl)cc1 (stereo not drawn) | – | > 100 | – | > 100 | – | > 100 µM | – | > 100 | – | > 100 µM | – | – | – | – | – | > 100 µM | > 100 µM | – | – | – |
| CCCNc1ncnc2c1cnn2C | – | > 100 | – | > 100 | – | > 100 µM | – | > 100 | – | > 100 µM | – | – | – | – | – | > 100 µM | > 100 µM | – | – | – |
| COC(=O)N/N=C(\c1nc2ccc(Cl)cc2[nH]c1=O)C(O)c1ccc([N+](=O)[O-])cc1 (stereo not drawn) | – | > 100 | – | > 100 | – | > 100 µM | – | > 100 | – | > 100 µM | – | – | – | – | – | > 100 µM | > 100 µM | – | – | – |
| CC1CC2C(=O)N(c3ccccc3)C(=O)C2c2[nH]c3ccccc3c21 (stereo not drawn) | – | > 100 | – | > 100 | – | > 100 µM | – | > 100 | – | > 100 µM | – | – | – | – | – | – | > 100 µM | – | – | – |
| Cc1cc2c(=O)cc(-c3ccncc3)oc2c(C(=O)O)c1C | – | – | – | > 100 | – | > 100 µM | – | – | – | > 100 µM | – | – | – | – | – | > 100 µM | > 100 µM | – | – | – |
| CCCCCCCCCCCCCCCC(=O)NCC(OCC)OCC | – | – | – | > 100 | – | > 100 µM | – | > 100 | – | – | – | – | – | – | – | > 100 µM | > 100 µM | – | – | – |
| COC(=O)CCSC(=O)Nc1ccccc1Cl | – | > 100 | – | > 100 | – | > 100 µM | – | – | – | > 100 µM | – | – | – | – | – | > 100 µM | > 100 µM | – | – | – |
| COc1ccc(-c2ccc(/C=N/n3c(COc4ccc(Cl)c(C)c4)nn(CN4CCOCC4)c3=S)o2)c([N+](=O)[O-])c1 | 20.4 | 51.7 | 33.5 | > 100 | 20.5 | 53.7 µM | – | – | 26.3 µM | 72.1 µM | – | – | 38 | > 100 | – | – | 56.2 µM | 19.3 | > 100 | > 100 |
| CC(C)C12CCC3(CCC4C(C)(C(=O)O)CCCC4(C)C3C1)C(CN)C2 (stereo not drawn) | – | – | – | > 100 | – | > 100 µM | – | 86.2 | – | 60.1 µM | – | > 100 | – | > 100 | – | > 100 µM | 19.4 µM | – | – | > 100 |
| COc1cccc(OC)c1/C=N\N1C(=O)c2ccccc2C1=O | – | > 100 | – | 89.3 | – | > 100 µM | – | > 100 | – | 74.5 µM | – | – | – | – | – | > 100 µM | > 100 µM | – | – | – |
| Cc1c2cc[n+](C)cc2c(C)c2c1[nH]c1ccc(Oc3ccccc3)cc12 | – | > 24 | – | > 100 | – | > 27.3 µM and 21.3 µM | – | – | 4.39 µM and 1.87 µM | > 71.9 µM and 8.31 µM | – | – | – | – | – | 6.96 µM and 8.42 µM | 18.6 µM and 22.9 µM | – | – | – |
| CC(=O)OCc1cc2c(s1)C(=O)c1sccc1C2=O | – | > 100 | – | 0.576 | – | 0.0721 µM | – | 0.0569 | – | – | – | 0.692 | – | 0.104 | – | 0.244 µM | – | – | – | 0.416 |
| NC1CC(n2ccc(=O)[nH]c2=O)OC1C(O)CO (stereo not drawn) | – | > 100 | – | > 100 | – | > 100 µM | – | > 100 | – | > 100 µM | – | – | – | – | – | > 100 µM | > 100 µM | – | – | – |
| O=[N+]([O-])c1cccc(C2=NOC3CCCC23)c1 (stereo not drawn) | – | > 100 | – | > 100 | – | > 100 µM | – | > 100 | – | – | – | – | – | – | – | > 100 µM | > 100 µM | – | – | – |
| O=C1C(=O)c2c(ccc3ccccc23)-c2ccccc21 | – | – | 2.11 | 7.98 | 1.73 | 3.67 µM | 1.5 | 2.82 | 2.69 µM | > 100 µM | 1.63 | 8.08 | 1.4 | 2.73 | 1.74 | 4.07 µM | > 100 µM | 2.17 | 1.53 | 3.48 |
| Cc1c(-c2ccc(N3CCc4cccc(C(=O)Nc5nc6ccccc6s5)c4C3)nc2C(=O)O)cnn1CC12CC3CC(CC(C3)C1)C2 | 7.51 | > 100 | 7.49 | 33 | 6.27 | 19.3 µM | 2.79 | 9.79 | 12.8 µM | > 57.4 µM | – | – | 15.2 | 29.1 | 10.5 | 30.2 µM | 10.4 µM | < 0.01 | 10.8 | 29.4 |
| O=C(/C=C/c1ccc(OCC(=O)N2CCN(c3ccccc3)CC2)cc1)c1ccccc1 | – | > 43 | – | > 67.5 | – | 54.5 µM | – | > 53 | – | 7.45 µM | – | – | – | – | – | > 100 µM | > 25.6 µM | – | – | – |
| Cc1c(C(=O)C/C(=N/NC(=O)CC#N)C(N)=O)[n+](=O)c2ccccc2n1[O-] | – | > 100 | – | > 100 | – | > 100 µM | – | > 100 | – | > 100 µM | – | – | – | – | – | > 100 µM | > 100 µM | – | – | – |
| Cc1cc2c(SCc3ccccc3Cl)nc(N)nc2nc1C | – | – | – | > 100 | – | > 100 µM | – | > 100 | – | > 100 µM | – | > 100 | – | > 100 | – | > 100 µM | > 100 µM | – | – | > 100 |
| Cn1nc(-c2ccccc2)c(C(=O)/C=C/c2ccccc2)c(N2CCCC2)c1=O | – | 40.9 | – | 76.5 | – | 32.8 µM | – | 35.7 | – | – | – | – | – | – | – | – | 40.6 µM | – | – | – |
